The results in this text go back to patent US8916555B2, “3,5-diaminopyrazole kinase inhibitors” (Axikin Pharmaceuticals, Inc., priority 2012, dated 2014).

As usually defined, the inhibition is the percentage by which the read-out fell short of the control. High values mean a response far below the control, low ones a response near the control. What is called melting point is the temperature of the solid-liquid transition.

The target in data set [1] is T1, kinase domain protein of RC kinase (Homo sapiens, UniProt Q56UN5).
T1 sequence (Q56UN5 1061-1324 limits assumed): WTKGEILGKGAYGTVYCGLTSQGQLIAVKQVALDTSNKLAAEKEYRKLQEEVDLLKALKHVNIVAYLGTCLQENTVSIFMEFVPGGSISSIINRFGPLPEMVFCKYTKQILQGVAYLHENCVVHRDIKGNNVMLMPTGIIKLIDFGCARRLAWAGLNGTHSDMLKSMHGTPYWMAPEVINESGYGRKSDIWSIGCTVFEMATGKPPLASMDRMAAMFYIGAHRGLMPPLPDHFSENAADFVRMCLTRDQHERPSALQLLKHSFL
In words: Enzymatic assay for kinase inhibitory activity (Crebtide substrate, LANCE readout), kinase domain protein. The class given is biochemical. Conditions: test compound 1 μM, ATP 1 μM, Crebtide 50 nM. The procedure, abridged:
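Kinase domain (1 mg/mL final) with 50 nM Crebtide and 1 μM ATP in MAPK buffer (50 mM HEPES, 10 mM MgCl2, 2 mM DTT, 0.01% Tween 20), 45 min RT. Compound at 1 μM or 1×IC50, duplicate. EDTA/anti-Crebtide stop, 45 min development, LANCE 665/615 nm; % inhibition at 1 μM binned A–D.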
Background: Time-resolved FRET reads energy transfer from a long-lived donor to a nearby acceptor.

Where only a bound is given, the exact number is not on record here.

On to `Cc1cn(-c2ccc(Nc3n[nH]c(NCc4ccc(O)cc4)c3C(N)=O)cc2)cn1` [Compound D98, 5-((4-hydroxybenzyl)amino)-3-((4-(4-methyl-1H-imidazol-1-yl)phenyl)amino)-1H-pyrazole-4-carboxamide], for which the melting point fell in the range of 257 to 260 °C. Further, the inhibition at 1 µM in data set [1] was ≥ 50%.

`NC(=O)c1c(Nc2ccc(N3CCN(c4ncccn4)CC3)cc2)n[nH]c1NCc1ccc(O)cc1` [Compound D124] displayed a melting point of 219 to 227 °C. Further, in data set [1], the inhibition at 1 µM is ≥ 50%.

As to `COc1cccc(CNc2[nH]nc(Nc3cccnc3)c2C(N)=O)c1` [Compound D152], the melting point fell in the range of 226 to 230 °C. In data set [1], this molecule registered an inhibition at 1 µM of 20 to 50%.

`NC(=O)c1c(Nc2cccc(Cl)c2)n[nH]c1NCc1ccc[nH]1` [Compound D59] showed a melting point of 193 to 198 °C. Further, the inhibition at 1 µM in data set [1] was in the range of 5 to 20%.

`NC(=O)c1c(Nc2ccc(-c3cc(CO)c4ccccc4n3)cc2)n[nH]c1NCc1ccc(O)cc1` [Compound D125] showed a melting point of 216 to 220 °C. Besides, in data set [1], the inhibition at 1 µM was ≥ 50%.

`N#CCc1ccc(Nc2n[nH]c(NCc3ccc(O)cc3)c2C(N)=O)cc1` [Compound D64, 3-((4-(cyanomethyl)phenyl)amino)-5-((4-hydroxybenzyl)amino)-1H-pyrazole-4-carboxamide] came in with a melting point of 200 to 203 °C. The inhibition at 1 µM in data set [1] was ≥ 50%.

The molecule `CC(C)N1CCN(c2ccc(Nc3n[nH]c(NCc4ccc(O)cc4)c3C(N)=O)cc2)CC1` [Compound D82, 5-((4-hydroxybenzyl)amino)-3-((4-(4-isopropylpiperazin-1-yl)phenyl)amino)-1H-pyrazole-4-carboxamide] displayed a melting point of 210 to 220 °C. For the same molecule, the inhibition at 1 µM in data set [1] was ≥ 50%.

Molecule `NC(=O)c1ccc(Nc2n[nH]c(NCc3ccc(O)cc3)c2C(N)=O)cc1` [Compound D63, 3-((4-carbamoylphenyl)amino)-5-((4-hydroxybenzyl)amino)-1H-pyrazole-4-carboxamide] registered a melting point of 225 to 230 °C. In addition, the inhibition at 1 µM in data set [1] was ≥ 50%.

Molecule `NC(=O)c1c(Nc2ccccc2)n[nH]c1NCc1ccc(O)cc1` [Compound D2] came in with a melting point of 214 to 216 °C. This molecule registered an inhibition at 1 µM in data set [1] of 20 to 50%.

Turning to `COc1ccc(CNc2[nH]nc(Nc3cccc(Cl)c3)c2C#N)cc1F` [Compound C27], the melting point fell in the range of 97 to 105 °C. Moreover, the inhibition at 1 µM in data set [1] is 5 to 20%.

Consider `CN(C)c1ccc(CNc2[nH]nc(Nc3cccnc3)c2C(N)=O)c2ccccc12` [Compound D42, 5-(((4-(dimethylamino)naphthalen-1-yl)methyl)amino)-3-(pyridin-3-ylamino)-1H-pyrazole-4-carboxamide], for which the melting point was in the range of 225 to 229 °C. In addition, in data set [1], the inhibition at 1 µM lay within 20 to 50%.

Turning to `NC(=O)c1c(Nc2cccc(Cl)c2)n[nH]c1NCc1ccoc1` [Compound D97], the melting point lay within 219 to 221 °C. Further, the inhibition at 1 µM in data set [1] was in the range of 5 to 20%.

`N#Cc1c(Nc2cccc(Cl)c2)n[nH]c1NCc1ccc(Oc2ccc(C(F)(F)F)cn2)cc1` [Compound C32, 3-((3-chlorophenyl)amino)-5-((4-((5-(trifluoromethyl)pyridin-2-yl)oxy)benzyl)amino)-1H-pyrazole-4-carbonitrile] yielded a melting point of 184 to 194 °C. Also, the “Activity (inhibition of the RC kinase activity at 1 μM)” value in data set [1] was “C (no greater than 20% but at least 5% inhibition of the RC kinase activity at 1 μM)”.

For the molecule `NC(=O)c1c(Nc2ccc(N3CCOC(=O)C3)cc2)n[nH]c1NCc1ccc(O)cc1` [Compound D99, 5-((4-hydroxybenzyl)amino)-3-((4-(2-oxomorpholino)phenyl)amino)-1H-pyrazole-4-carboxamide], the melting point lay within 194 to 197 °C. In addition, the inhibition at 1 µM in data set [1] was ≥ 50%.

`NC(=O)c1c(Nc2ccc(N3CCC(N4CCCC4)CC3)cc2)n[nH]c1NCc1ccc(O)cc1` [Compound D121] came in with a melting point of 241 to 244 °C. The inhibition at 1 µM in data set [1] was ≥ 50%.

Molecule `CC1CCN(C2CCN(c3ccc(Nc4n[nH]c(NCc5ccc(O)cc5)c4C(N)=O)cn3)CC2)CC1` [Compound D119] gave a melting point of 203 to 206 °C. Also, in data set [1], the inhibition at 1 µM was ≥ 50%.

Turning to `COc1ccccc1CNc1[nH]nc(Nc2cccc(Cl)c2)c1C(N)=O` [Compound D157, 3-((3-chlorophenyl)amino)-5-((2-methoxybenzyl)amino)-1H-pyrazole-4-carboxamide], the melting point was 225 to 227 °C. Also, the inhibition at 1 µM in data set [1] lay in the range of 5 to 20%.

Consider `COc1ccc(Nc2n[nH]c(NCc3ccc(O)cc3)c2C(N)=O)cc1` [Compound D162, 5-((4-hydroxybenzyl)amino)-3-((4-methoxyphenyl)amino)-1H-pyrazole-4-carboxamide], for which the melting point was 176 to 180 °C. Moreover, in data set [1], the inhibition at 1 µM is ≥ 50%.

With `N#Cc1cccc(Nc2n[nH]c(NCc3ccc(O)cc3)c2C(N)=O)c1` [Compound D66, 3-((3-cyanophenyl)amino)-5-((4-hydroxybenzyl)amino)-1H-pyrazole-4-carboxamide], the melting point was in the range of 189 to 194 °C. The inhibition at 1 µM in data set [1] is ≥ 50%.

`NC(=O)c1c(Nc2ccc(NC(=O)c3ccc(F)cc3)cc2)n[nH]c1NCc1ccc(O)cc1` [Compound D132, 3-((4-(4-fluorobenzamido)phenyl)amino)-5-((4-hydroxybenzyl)amino)-1H-pyrazole-4-carboxamide] had a melting point of 227 to 231 °C. For the same molecule, the inhibition at 1 µM in data set [1] was ≥ 50%.

Molecule `NC(=O)c1c(Nc2ccc(F)c(Cl)c2)n[nH]c1NCc1ccc(O)cc1` [Compound D159, 3-((3-chloro-4-fluorophenyl)amino)-5-((4-hydroxybenzyl)amino)-1H-pyrazole-4-carboxamide] returned a melting point of 178 to 183 °C. For the same molecule, the inhibition at 1 µM in data set [1] is ≥ 50%.

On to `CCOc1ccc2ccccc2c1CNc1[nH]nc(Nc2cccnc2)c1C(N)=O` [Compound D43, 5-(((2-ethoxynaphthalen-1-yl)methyl)amino)-3-(pyridin-3-ylamino)-1H-pyrazole-4-carboxamide], for which the melting point lay within 231 to 236 °C. Further, the inhibition at 1 µM in data set [1] lay in the range of 20 to 50%.

Consider `NC(=O)c1c(NCc2c(F)cccc2F)n[nH]c1NCc1ccc(O)cc1` [Compound D114], for which the melting point is 189 to 191 °C. The inhibition at 1 µM in data set [1] is ≤ 5%.

In turn, `CS(=O)(=O)c1ccc(CNc2n[nH]c(NCc3ccc(O)cc3)c2C(N)=O)cc1` [Compound D113, 5-((4-hydroxybenzyl)amino)-3-((4-(methylsulfonyl)benzyl)amino)-1H-pyrazole-4-carboxamide] displayed a melting point of 263 to 267 °C. Also, the inhibition at 1 µM in data set [1] was in the range of 5 to 20%.

As to `NC(=O)c1c(Nc2ccc(Cl)c(Cl)c2)n[nH]c1NCc1ccc(O)cc1` [Compound D158, 3-((3,4-dichlorophenyl)amino)-5-((4-hydroxybenzyl)amino)-1H-pyrazole-4-carboxamide], the melting point lay within 203 to 209 °C. The inhibition at 1 µM in data set [1] was ≥ 50%.
